How the values were obtained:
Assay in all cases: relative viability (nuclei count vs DMSO), 5 days (fraction); higher = more cells survive
[1] = tested on: NCI-H460
Procedure, shortened: (§1)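 Nuclei were stained with Hoechst during a one-step fixation (final 0.05% Triton X-100, 1% formaldehyde, 1 ug/ml Hoechst) carried out 5 days after dosing, then counted on 4× images. The cells, lung cancer lines in 1536-well plates, had been dosed by pin tool the day after seeding with one drug alone or a fixed anchor-drug dose plus five library-drug doses (not always all listed) in √10 steps. Relative viability is the nuclei count in treated wells divided by that in vehicle wells, and each value is the median of duplicate plates.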

[2] = tested on: NCI-H3122
Procedure, shortened: as §1

[3] = tested on: SK-MES-1
Procedure, shortened: as §1

[4] = tested on: NCI-H1915
Procedure, shortened: as §1

[5] = tested on: NCI-H522
Procedure, shortened: as §1

[6] = tested on: NCI-H520
Procedure, shortened: as §1

[7] = tested on: RERF-LC-KJ
Procedure, shortened: as §1

[8] = tested on: SW 900
Procedure, shortened: as §1

[9] = tested on: LCLC-103H
Procedure, shortened: as §1

[10] = tested on: NCI-H1355
Procedure, shortened: as §1

[11] = tested on: NCI-H661
Procedure, shortened: as §1

[12] = tested on: PC-14
Procedure, shortened: as §1

[13] = tested on: LXF-289
Procedure, shortened: as §1

[14] = tested on: NCI-H1651
Procedure, shortened: as §1

[15] = tested on: NCI-H2347
Procedure, shortened: as §1

[16] = tested on: NCI-H1792
Procedure, shortened: as §1

[17] = tested on: NCI-H727
Procedure, shortened: as §1

[18] = tested on: NCI-H596
Procedure, shortened: as §1

[19] = tested on: NCI-H322M
Procedure, shortened: as §1

[20] = tested on: NCI-H441
Procedure, shortened: as §1

[21] = tested on: NCI-H1755
Procedure, shortened: as §1

With `O=c1cc(-c2cccc3c2Sc2ccccc2S3)oc(N2CCOCC2)c1` + CC(=O)Nc1cccc(-n2c(=O)n(C3CC3)c(=O)c3c(Nc4ccc(I)cc4F)n(C)c(=O)c(C)c32)c1 [Trametinib] (partner 0.02 µM) as the compound, how does the relative viability ([1]; first compound 0.08 µM) read?
The relative viability was 0.147.

What about the relative viability ([1]; first compound 0.253 µM) of the same compound?
The relative viability was 0.163.

What about the relative viability ([1]; first compound 0.8 µM) of the same compound?
Its relative viability is 0.113.

And the relative viability ([1]; first compound 2.53 µM)?
The relative viability was 0.091.

What about the relative viability ([1]; first compound 8 µM) of the same compound?
The relative viability was 0.1.

And the relative viability ([2]; first compound 0.08 µM)?
Its relative viability is 0.259.

And the relative viability ([2]; first compound 0.253 µM)?
The relative viability was 0.299.

What about the relative viability ([2]; first compound 0.8 µM) of the same compound?
The relative viability was 0.314.

And the relative viability ([2]; first compound 2.53 µM)?
The relative viability was 0.193.

And the relative viability ([2]; first compound 8 µM)?
The relative viability was 0.292.

What about the relative viability ([3]; first compound 0.08 µM) of the same compound?
Its relative viability is 0.543.

And the relative viability ([3]; first compound 0.253 µM)?
Its relative viability is 0.579.

And the relative viability ([3]; first compound 0.8 µM)?
The relative viability was 0.448.

And the relative viability ([3]; first compound 2.53 µM)?
The relative viability was 0.481.

And the relative viability ([3]; first compound 8 µM)?
Its relative viability is 0.379.

What about the relative viability ([4]; first compound 0.08 µM) of the same compound?
The relative viability was 0.293.

And the relative viability ([4]; first compound 0.253 µM)?
Its relative viability is 0.312.

And the relative viability ([4]; first compound 0.8 µM)?
The relative viability was 0.32.

What about the relative viability ([4]; first compound 2.53 µM) of the same compound?
Its relative viability is 0.285.

And the relative viability ([4]; first compound 8 µM)?
The relative viability was 0.264.

And the relative viability ([5]; first compound 0.08 µM)?
Its relative viability is 0.725.

What about the relative viability ([5]; first compound 0.253 µM) of the same compound?
The relative viability was 0.988.

And the relative viability ([5]; first compound 0.8 µM)?
The relative viability was 0.724.

And the relative viability ([5]; first compound 2.53 µM)?
Its relative viability is 0.815.

What about the relative viability ([5]; first compound 8 µM) of the same compound?
The relative viability was 0.734.

What about the relative viability ([6]; first compound 0.08 µM) of the same compound?
The relative viability was 0.566.

What about the relative viability ([6]; first compound 0.253 µM) of the same compound?
The relative viability was 0.741.

What about the relative viability ([6]; first compound 0.8 µM) of the same compound?
Its relative viability is 0.78.

What about the relative viability ([6]; first compound 2.53 µM) of the same compound?
Its relative viability is 0.776.

What about the relative viability ([6]; first compound 8 µM) of the same compound?
Its relative viability is 0.637.

And the relative viability ([7]; first compound 0.08 µM)?
The relative viability was 0.79.

What about the relative viability ([7]; first compound 0.253 µM) of the same compound?
The relative viability was 0.856.

What about the relative viability ([7]; first compound 0.8 µM) of the same compound?
The relative viability was 0.89.

And the relative viability ([7]; first compound 2.53 µM)?
Its relative viability is 0.895.

And the relative viability ([7]; first compound 8 µM)?
Its relative viability is 0.784.

What about the relative viability ([8]; first compound 0.253 µM) of the same compound?
Its relative viability is 0.93.

What about the relative viability ([8]; first compound 0.8 µM) of the same compound?
The relative viability was 0.777.

And the relative viability ([8]; first compound 2.53 µM)?
Its relative viability is 0.814.

And the relative viability ([8]; first compound 8 µM)?
Its relative viability is 0.816.

What about the relative viability ([9]; first compound 0.08 µM) of the same compound?
Its relative viability is 0.698.

What about the relative viability ([9]; first compound 0.253 µM) of the same compound?
The relative viability was 0.713.

What about the relative viability ([9]; first compound 0.8 µM) of the same compound?
The relative viability was 0.631.

And the relative viability ([9]; first compound 2.53 µM)?
The relative viability was 0.662.

And the relative viability ([9]; first compound 8 µM)?
Its relative viability is 0.623.

And the relative viability ([10]; first compound 0.08 µM)?
The relative viability was 0.524.

What about the relative viability ([10]; first compound 0.253 µM) of the same compound?
Its relative viability is 0.468.

What about the relative viability ([10]; first compound 0.8 µM) of the same compound?
The relative viability was 0.348.

And the relative viability ([10]; first compound 2.53 µM)?
Its relative viability is 0.409.

And the relative viability ([10]; first compound 8 µM)?
Its relative viability is 0.352.

And the relative viability ([11]; first compound 0.08 µM)?
Its relative viability is 0.565.

What about the relative viability ([11]; first compound 0.253 µM) of the same compound?
The relative viability was 0.649.

And the relative viability ([11]; first compound 0.8 µM)?
The relative viability was 0.527.

And the relative viability ([11]; first compound 2.53 µM)?
Its relative viability is 0.514.

What about the relative viability ([11]; first compound 8 µM) of the same compound?
Its relative viability is 0.471.

What about the relative viability ([12]; first compound 0.08 µM) of the same compound?
Its relative viability is 0.748.

What about the relative viability ([12]; first compound 0.253 µM) of the same compound?
The relative viability was 0.828.

And the relative viability ([12]; first compound 0.8 µM)?
Its relative viability is 0.728.

And the relative viability ([12]; first compound 2.53 µM)?
Its relative viability is 0.827.

What about the relative viability ([12]; first compound 8 µM) of the same compound?
Its relative viability is 0.718.

What about the relative viability ([13]; first compound 0.08 µM) of the same compound?
The relative viability was 0.657.

And the relative viability ([13]; first compound 0.253 µM)?
The relative viability was 0.716.

And the relative viability ([13]; first compound 0.8 µM)?
Its relative viability is 0.73.

And the relative viability ([13]; first compound 2.53 µM)?
The relative viability was 0.651.

And the relative viability ([13]; first compound 8 µM)?
The relative viability was 0.692.

What about the relative viability ([14]; first compound 0.08 µM) of the same compound?
The relative viability was 0.906.

And the relative viability ([14]; first compound 0.253 µM)?
Its relative viability is 0.709.

What about the relative viability ([14]; first compound 0.8 µM) of the same compound?
Its relative viability is 0.843.

What about the relative viability ([14]; first compound 2.53 µM) of the same compound?
Its relative viability is 0.803.

And the relative viability ([14]; first compound 8 µM)?
Its relative viability is 0.832.

What about the relative viability ([15]; first compound 0.08 µM) of the same compound?
Its relative viability is 0.283.

And the relative viability ([15]; first compound 0.253 µM)?
The relative viability was 0.266.

What about the relative viability ([15]; first compound 0.8 µM) of the same compound?
The relative viability was 0.264.

What about the relative viability ([15]; first compound 2.53 µM) of the same compound?
The relative viability was 0.27.

What about the relative viability ([15]; first compound 8 µM) of the same compound?
The relative viability was 0.295.

What about the relative viability ([16]; first compound 0.08 µM) of the same compound?
The relative viability was 0.446.

What about the relative viability ([16]; first compound 0.253 µM) of the same compound?
Its relative viability is 0.685.

What about the relative viability ([16]; first compound 0.8 µM) of the same compound?
Its relative viability is 0.441.

What about the relative viability ([16]; first compound 2.53 µM) of the same compound?
Its relative viability is 0.421.

What about the relative viability ([16]; first compound 8 µM) of the same compound?
Its relative viability is 0.38.

What about the relative viability ([17]; first compound 0.08 µM) of the same compound?
Its relative viability is 0.367.

And the relative viability ([17]; first compound 0.253 µM)?
The relative viability was 0.37.

And the relative viability ([17]; first compound 2.53 µM)?
Its relative viability is 0.311.

What about the relative viability ([17]; first compound 8 µM) of the same compound?
Its relative viability is 0.389.

What about the relative viability ([18]; first compound 0.08 µM) of the same compound?
Its relative viability is 0.819.

And the relative viability ([18]; first compound 0.253 µM)?
The relative viability was 0.925.

And the relative viability ([18]; first compound 0.8 µM)?
The relative viability was 0.823.

And the relative viability ([18]; first compound 2.53 µM)?
Its relative viability is 0.934.

And the relative viability ([18]; first compound 8 µM)?
Its relative viability is 0.801.

And the relative viability ([19]; first compound 0.08 µM)?
Its relative viability is 0.52.

And the relative viability ([19]; first compound 0.253 µM)?
The relative viability was 0.558.

What about the relative viability ([19]; first compound 0.8 µM) of the same compound?
The relative viability was 0.591.

What about the relative viability ([19]; first compound 2.53 µM) of the same compound?
The relative viability was 0.443.

What about the relative viability ([19]; first compound 8 µM) of the same compound?
The relative viability was 0.529.

And the relative viability ([20]; first compound 0.08 µM)?
Its relative viability is 0.34.

And the relative viability ([20]; first compound 0.253 µM)?
The relative viability was 0.527.

And the relative viability ([20]; first compound 0.8 µM)?
The relative viability was 0.55.

What about the relative viability ([20]; first compound 2.53 µM) of the same compound?
Its relative viability is 0.465.

What about the relative viability ([20]; first compound 8 µM) of the same compound?
Its relative viability is 0.424.

What about the relative viability ([21]; first compound 0.08 µM) of the same compound?
Its relative viability is 0.739.

And the relative viability ([21]; first compound 0.253 µM)?
Its relative viability is 0.867.

And the relative viability ([21]; first compound 0.8 µM)?
Its relative viability is 0.732.

What about the relative viability ([21]; first compound 2.53 µM) of the same compound?
The relative viability was 0.789.

And the relative viability ([21]; first compound 8 µM)?
The relative viability was 0.787.

Reference: the supplement of paper PMC10307832
